From patent US20260325533A1, “CDK INHIBITOR COMPOUNDS” (ALEKSIA THERAPEUTICS, INC., priority 2023, published 2026)
Read-outs that look alike come from different tables or passages of the source. Blank lines part the entries; values can stand above or below the compound they belong to.

Experiments:
Type in all cases: biochemical
CDK1/CCNB1 = CDK1/CCNB1 (Homo sapiens, UniProt P06493); assay: CDK1 homogeneous time-resolved fluorescence (HTRF) kinase assay; conditions: CDK1/CCNB
In short: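 CDK1/CCNB1 0.5 nM + cpd, 20 min 23 °C; add 1 mM ATP, 50 nM ULight-4E-BP1 peptide, 60 min 23 °C; stop 10 mM EDTA; 2 nM Eu-Ab, 60 min; HTRF 665 nm. 11-pt half-log, top 10 μM typical; IC50.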

CDK2/CCNE1 = CDK2/CCNE1 (Homo sapiens, UniProt P24941); assay: CDK2 homogeneous time-resolved fluorescence (HTRF) kinase assay; conditions: CDK2/CCNE
In short: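 IC50 derived from 11-point, half-log dilutions (usually top 10 μM) of compound, 1% DMSO. Kinase (3 nM CDK2/CCNE1) was preincubated with compound 20 min, then phosphorylated 50 nM ULight-4E-BP1 peptide at 1 mM ATP for 60 min, 23 °C. Europium-antibody TR-FRET read after EDTA stop.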

CDK4/CCND3 = CDK4/CCND3 (Homo sapiens, UniProt P11802); assay: CDK4 homogeneous time-resolved fluorescence (HTRF) kinase assay; conditions: CDK4/CCND
Chain of CDK4/CCND3 (P11802 whole entry): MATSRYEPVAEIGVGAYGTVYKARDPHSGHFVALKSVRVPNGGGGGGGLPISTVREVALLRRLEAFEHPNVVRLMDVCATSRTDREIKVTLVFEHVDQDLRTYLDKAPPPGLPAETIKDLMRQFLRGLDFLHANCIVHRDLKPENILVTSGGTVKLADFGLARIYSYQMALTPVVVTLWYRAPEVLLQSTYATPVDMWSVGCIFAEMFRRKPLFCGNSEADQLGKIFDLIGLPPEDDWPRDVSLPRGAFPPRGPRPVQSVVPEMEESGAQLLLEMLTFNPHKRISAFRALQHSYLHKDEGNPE
Chain of CDK4/CCND3 (P30281 whole entry partner): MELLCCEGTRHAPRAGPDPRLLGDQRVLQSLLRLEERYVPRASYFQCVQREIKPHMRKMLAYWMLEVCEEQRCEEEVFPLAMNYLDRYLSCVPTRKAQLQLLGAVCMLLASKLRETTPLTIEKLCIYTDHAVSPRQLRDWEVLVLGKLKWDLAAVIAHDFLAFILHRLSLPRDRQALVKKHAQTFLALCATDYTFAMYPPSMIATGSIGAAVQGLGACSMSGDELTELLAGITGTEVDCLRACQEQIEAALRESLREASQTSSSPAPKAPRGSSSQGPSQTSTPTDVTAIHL
In short: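 HTRF kinase assay, CDK4/CCND3 1.5 nM, ATP 1 mM, ULight-4E-BP1 peptide 50 nM, 23 °C, 60 min reaction after 20 min preincubation. Eu-anti-pThr37/46 antibody detection. 11-pt half-log curves from 10 μM → IC50.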

CDK6/CCND1 = CDK6/CCND1 (Homo sapiens, UniProt Q00534); assay: CDK6 homogeneous time-resolved fluorescence (HTRF) kinase assay; conditions: CDK6/CCND
Chain of CDK6/CCND1 (Q00534 whole entry): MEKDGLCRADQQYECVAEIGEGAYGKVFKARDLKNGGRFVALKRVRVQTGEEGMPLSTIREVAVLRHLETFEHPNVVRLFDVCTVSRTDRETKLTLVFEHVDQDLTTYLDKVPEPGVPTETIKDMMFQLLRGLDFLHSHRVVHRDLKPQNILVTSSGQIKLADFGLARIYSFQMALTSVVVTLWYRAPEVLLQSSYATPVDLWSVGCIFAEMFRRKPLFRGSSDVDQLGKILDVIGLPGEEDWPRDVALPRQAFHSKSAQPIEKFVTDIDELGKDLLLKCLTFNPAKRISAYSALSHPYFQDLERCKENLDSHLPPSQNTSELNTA
Chain of CDK6/CCND1 (P24385 whole entry partner): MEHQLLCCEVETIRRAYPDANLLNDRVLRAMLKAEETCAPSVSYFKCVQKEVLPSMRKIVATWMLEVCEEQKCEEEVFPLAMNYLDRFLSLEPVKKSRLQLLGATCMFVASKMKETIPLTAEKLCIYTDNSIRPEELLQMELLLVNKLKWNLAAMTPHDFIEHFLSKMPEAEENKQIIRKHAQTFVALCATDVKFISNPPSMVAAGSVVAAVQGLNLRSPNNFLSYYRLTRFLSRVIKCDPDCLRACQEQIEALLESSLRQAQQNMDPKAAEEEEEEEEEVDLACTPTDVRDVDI
In short: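 Recombinant CDK6/CCND1 (1 nM final) was preincubated with compound for 20 min at 23 °C in HEPES buffer with MgCl2, EGTA, DTT and Tween 20. Kinase reaction then ran 60 min at 23 °C with 1 mM ATP and 50 nM ULight-4E-BP1 (Thr37/46) peptide, and was stopped with EDTA.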

[1] = >250 nM marked x, read-out: CDK1/CCNB IC50 >250 nM
[2] = <25 nM, read-out: CDK2/CCNE IC50 <25 nM
[3] = 25-250 nM marked x, read-out: CDK4/CCND IC50 25-250 nM
[4] = 25-250 nM marked x, read-out: CDK6/CCND IC50 25-250 nM
[5] = x = IC50 25-250 nM, read-out: CDK1/CCNB IC50 (25-250 nM)
[6] = x = IC50 <25 nM, read-out: CDK2/CCNE IC50 (<25 nM)
[7] = x = IC50 25-250 nM, read-out: CDK4/CCND IC50 (25-250 nM)
[8] = x = IC50 >250 nM, read-out: CDK6/CCND IC50 (>250 nM column)
[9] = x = IC50 >250 nM, read-out: CDK1/CCNB IC50 (>250 nM column)
[10] = x = IC50 25-250 nM, read-out: CDK2/CCNE IC50 (25-250 nM)
[11] = x = IC50 >250 nM, read-out: CDK4/CCND IC50 (>250 nM column)
[12] = >250 nM marked x, read-out: CDK4/CCND IC50 >250 nM
[13] = >250 nM marked x, read-out: CDK6/CCND IC50 >250 nM

Chain of CDK1/CCNB1 (P06493 whole entry): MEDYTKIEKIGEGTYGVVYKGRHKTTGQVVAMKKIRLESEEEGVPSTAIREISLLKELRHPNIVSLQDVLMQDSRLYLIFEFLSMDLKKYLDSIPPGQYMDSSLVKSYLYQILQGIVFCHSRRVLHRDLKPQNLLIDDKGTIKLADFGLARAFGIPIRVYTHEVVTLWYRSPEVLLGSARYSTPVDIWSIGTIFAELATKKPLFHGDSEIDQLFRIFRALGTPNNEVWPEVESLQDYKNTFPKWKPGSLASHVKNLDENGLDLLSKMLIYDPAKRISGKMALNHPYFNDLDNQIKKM
Chain of CDK1/CCNB1 (P14635 whole entry partner): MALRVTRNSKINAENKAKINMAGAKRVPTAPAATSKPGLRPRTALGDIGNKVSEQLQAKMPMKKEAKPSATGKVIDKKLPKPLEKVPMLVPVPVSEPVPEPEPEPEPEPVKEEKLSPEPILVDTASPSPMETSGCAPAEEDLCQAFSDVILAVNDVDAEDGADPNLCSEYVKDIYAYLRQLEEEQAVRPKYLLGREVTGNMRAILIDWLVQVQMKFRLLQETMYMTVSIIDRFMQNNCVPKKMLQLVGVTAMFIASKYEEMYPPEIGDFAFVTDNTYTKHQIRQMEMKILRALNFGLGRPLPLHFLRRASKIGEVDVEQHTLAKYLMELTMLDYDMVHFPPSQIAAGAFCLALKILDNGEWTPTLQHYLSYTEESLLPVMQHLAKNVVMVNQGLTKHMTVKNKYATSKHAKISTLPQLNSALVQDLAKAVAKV

IC50 (CDK1/CCNB1; [1]): > 0.25 µM
IC50 (CDK2/CCNE1; [2]): < 0.025 µM
IC50 (CDK4/CCND3; [3]): 0.025 to 0.25 µM
IC50 (CDK6/CCND1; [4]): 0.025 to 0.25 µM
SMILES: CS(=O)(=O)c1ccc(Nc2cc3c(C4=CCC(O)CC4)nccc3cn2)cc1 (racemic) [Ex 120, 4-(7-((4-(methylsulfonyl)phenyl)amino)-2,6-naphthyridin-1-yl)cyclohex-3-en-1-ol]

IC50 (CDK1/CCNB1; [5]): 0.025 to 0.25 µM
IC50 (CDK2/CCNE1; [6]): < 0.025 µM
IC50 (CDK4/CCND3; [7]): 0.025 to 0.25 µM
IC50 (CDK6/CCND1; [8]): > 0.25 µM
SMILES: CCC1(CC)C(=O)Nc2cc(C#Cc3nccc4cnc(Nc5ccc(S(=N)(=O)C6CC6)cc5)cc34)ccc21 (single isomer, unassigned) [Ex 410, 6-((7-((4-(cyclopropanesulfonimidoyl)phenyl)amino)-2,6-naphthyridin-1-yl)ethynyl)-3,3-diethylindolin-2-one]

IC50 (CDK1/CCNB1; [1]): > 0.25 µM
IC50 (CDK2/CCNE1; [2]): < 0.025 µM
IC50 (CDK4/CCND3; [3]): 0.025 to 0.25 µM
IC50 (CDK6/CCND1; [4]): 0.025 to 0.25 µM
SMILES: CS(=O)(=O)c1ccc(Nc2cc3c(C4=CCC(C#N)CC4)nccc3cn2)cc1 (racemic) [Ex 121, 4-(7-((4-(methylsulfonyl)phenyl)amino)-2,6-naphthyridin-1-yl)cyclohex-3-ene-1-carbonitrile]

IC50 (CDK1/CCNB1; [9]): > 0.25 µM
IC50 (CDK2/CCNE1; [10]): 0.025 to 0.25 µM
IC50 (CDK4/CCND3; [11]): > 0.25 µM
IC50 (CDK6/CCND1; [8]): > 0.25 µM
SMILES: COc1ccc(C#Cc2nccc3cnc(Nc4ccc(S(C)(=O)=O)cc4)cc23)cn1 [Ex 646, 5-((6-methoxypyridin-3-yl)ethynyl)-N-(4-(methylsulfonyl)phenyl)-2,6-naphthyridin-3-amine]

IC50 (CDK1/CCNB1; [1]): > 0.25 µM
IC50 (CDK2/CCNE1; >250 nM marked x, read-out: CDK2/CCNE IC50 >250 nM): > 0.25 µM
IC50 (CDK4/CCND3; [12]): > 0.25 µM
IC50 (CDK6/CCND1; [13]): > 0.25 µM
SMILES: C=CCS(=O)(=O)N1CCC(c2nccc3cnc(Nc4ccc(S(C)(=O)=O)cc4)cc23)C1 (racemic) [Ex 237, 5-(1-(allylsulfonyl)pyrrolidin-3-yl)-N-(4-(methylsulfonyl)phenyl)-2,6-naphthyridin-3-amine]

IC50 (CDK1/CCNB1; [1]): > 0.25 µM
IC50 (CDK2/CCNE1; 25-250 nM marked x, read-out: CDK2/CCNE IC50 25-250 nM): 0.025 to 0.25 µM
IC50 (CDK4/CCND3; [12]): > 0.25 µM
IC50 (CDK6/CCND1; [13]): > 0.25 µM
SMILES: C=CS(=O)(=O)c1ccc(Nc2cc3c(C#Cc4ccc(C#N)cc4)nccc3cn2)cc1 [Ex 156, 4-((7-((4-(vinylsulfonyl)phenyl)amino)-2,6-naphthyridin-1-yl)ethynyl)benzonitrile]

IC50 (CDK1/CCNB1; [9]): > 0.25 µM
IC50 (CDK2/CCNE1; [10]): 0.025 to 0.25 µM
IC50 (CDK4/CCND3; [11]): > 0.25 µM
IC50 (CDK6/CCND1; [8]): > 0.25 µM
SMILES: Cc1c(-c2nccc3cnc(Nc4ccc(S(C)(=O)=O)cc4)cc23)ccc2c1cnn2C(=O)NC(C)(C)C [Example 668, N-(tert-butyl)-4-methyl-5-(7-((4-(methylsulfonyl)phenyl)amino)-2,6-naphthyridin-1-yl)-1H-indazole-1-carboxamide]

IC50 (CDK1/CCNB1; [5]): 0.025 to 0.25 µM
IC50 (CDK2/CCNE1; [6]): < 0.025 µM
IC50 (CDK4/CCND3; [7]): 0.025 to 0.25 µM
IC50 (CDK6/CCND1; x = IC50 25-250 nM, read-out: CDK6/CCND IC50 (25-250 nM)): 0.025 to 0.25 µM
SMILES: Cc1c(-c2nccc3cnc(Nc4ccc(S(C)(=O)=O)cc4)cc23)ccc2c1cnn2CC(C)O (racemic) [Ex 672, 1-(4-methyl-5-(7-((4-(methylsulfonyl)phenyl)amino)-2,6-naphthyridin-1-yl)-1H-indazol-1-yl)propan-2-ol]

IC50 (CDK1/CCNB1; [1]): > 0.25 µM
IC50 (CDK2/CCNE1; [2]): < 0.025 µM
IC50 (CDK4/CCND3; [3]): 0.025 to 0.25 µM
IC50 (CDK6/CCND1; [4]): 0.025 to 0.25 µM
SMILES: CS(=O)(=O)c1ccc(Nc2cc3c(C#CC4CCC(C#N)CC4)nccc3cn2)cc1 (racemic) [Ex 252, 4-((7-((4-(methylsulfonyl)phenyl)amino)-2,6-naphthyridin-1-yl)ethynyl)cyclohexane-1-carbonitrile]
